From ChEMBL document CHEMBL5512673, “Secondary Structure Stabilization of Macrocyclic Antimicrobial Peptides via Cross-Link Swapping” (J Med Chem, 2024)
pIC50: −log10 of the molar value. In brackets after ≈: the same amount, converted by molar mass. Activity calls are given as the source filed them. No cut-off for these calls is given here. Bridge positions count the residues as written; N and C are the ends. Square brackets hold non-standard residues; d marks the D form. Peptide text beside a SMILES is read from it. Dab = NCC[C@H](N)C(=O)O; Dap = NC[C@H](N)C(=O)O

Experiments:
Trypsin = Trypsin (Homo sapiens, UniProt P07477+P07478+P35030); assay: Stability of compound in PBS at […] assessed as trypsin (unknown origin)-mediated drug degradation measured after 3 to 60 mins using TAMRA-labelled compound by HPLC analysis; assay type: ADME, protein assay; conditions: buffer, time 3-60 min
Escherichia coli [1] = assay: Antibacterial activity against Escherichia coli assessed as inhibition of bacterial growth incubated for 24 hrs by nutrient agar plate method; assay type: functional
Bacillus subtilis [2] = assay: Antibacterial activity against Bacillus subtilis assessed as inhibition of bacterial growth incubated for 24 hrs by nutrient agar plate method; assay type: functional
[3] = test system: Staphylococcus epidermidis; assay: Antibacterial activity against Staphylococcus epidermidis assessed as inhibition of bacterial growth incubated for 24 hrs by nutrient agar plate method; assay type: functional
RAW264.7 [4] = assay: Cytotoxicity against mouse RAW264.7 cells assessed as reduction in cell viability at 100 uM incubated for 24 hrs by MTS assay; assay type: toxicity, cell-based; conditions: raw264.7, 24 h
Escherichia coli [5] = assay: Antibacterial activity against Escherichia coli assessed as reduction in bacterial cell viability incubated for 24 hrs by nutrient agar plate method; assay type: functional, organism-based
Bacillus subtilis [6] = assay: Antibacterial activity against Bacillus subtilis assessed as reduction in bacterial cell viability incubated for 24 hrs by nutrient agar plate method; assay type: functional, organism-based
[7] = test system: Staphylococcus epidermidis; assay: Antibacterial activity against Staphylococcus epidermidis assessed as reduction in bacterial cell viability incubated for 24 hrs by nutrient agar plate method; assay type: functional, organism-based
RAW264.7 [8] = assay: Upregulation of IL-1beta production in mouse RAW264.7 cells at 50 uM incubated for 24 hrs by ELISA; assay type: functional, cell-based
RAW264.7 [9] = assay: Effect on IL-10 release in mouse RAW264.7 cells at 50 uM incubated for 24 hrs by ELISA; assay type: functional, cell-based
RAW264.7 [10] = assay: Anti-inflammatory activity in mouse RAW264.7 cells assessed as reduction in LPS-induced IL-1beta production at 50 uM incubated for 24 hrs by ELISA; assay type: functional, cell-based
RAW264.7 [11] = assay: Anti-inflammatory activity in mouse RAW264.7 cells assessed as reduction in LPS-induced IL-10 production at 50 uM incubated for 24 hrs by ELISA; assay type: functional, cell-based
[12] = Aggregation property of compound in aqueous solution assessed as critical micelle concentration by dynamic light scattering analysis; assay type: physicochemical; conditions: buffer
Escherichia coli [13] = assay: Antibacterial activity against Escherichia coli NEB 5alpha assessed as aggregation of bacteria into flakes at 2 to 50 uM incubated for 4 hrs by bacterial flocculation assay; assay type: functional, organism-based; conditions: dose 2-50 µM
Bacillus subtilis [14] = assay: Antibacterial activity against Bacillus subtilis ATCC 6051 assessed as aggregation of bacteria into flakes at 2 to 50 uM incubated for 4 hrs by bacterial flocculation assay; assay type: functional, organism-based; conditions: dose 2-50 µM
Micrococcus luteus [15] = assay: Antibacterial activity against Micrococcus luteus assessed as inhibition of bacterial growth incubated for 24 hrs by nutrient agar plate method; assay type: functional
Micrococcus luteus [16] = assay: Antibacterial activity against Micrococcus luteus assessed as reduction in bacterial cell viability incubated for 24 hrs by nutrient agar plate method; assay type: functional, organism-based

| Structure (SMILES) | Stability (Trypsin) | MIC (Escherichia coli [1]) | MIC (Bacillus subtilis [2]) | MIC [3] | Activity (RAW264.7 [4]) | pIC50 (Escherichia coli [5]) | pIC50 (Bacillus subtilis [6]) | pIC50 [7] | Activity (RAW264.7 [8]) | Activity (RAW264.7 [9]) | Activity (RAW264.7 [10]) | Activity (RAW264.7 [11]) | CMC [12] | Activity (Escherichia coli [13]) | Activity (Bacillus subtilis [14]) | MIC (Micrococcus luteus [15]) | pIC50 (Micrococcus luteus [16]) |
| --- | --- | --- | --- | --- | --- | --- | --- | --- | --- | --- | --- | --- | --- | --- | --- | --- | --- |
| CN(C)c1ccc2c(-c3ccc(C(=O)N[C@@H](Cc4ccc(O)cc4)C(=O)NCC(=O)N[C@@H](CCCNC(=N)N)C(=O)N[C@@H](CCCCN)C(=O)N[C@@H](CCCCN)C(=O)N[C@@H](CCCNC(=N)N)C(=O)N[C@@H](CCCNC(=N)N)C(=O)N[C@@H](CCC(N)=O)C(=O)N[C@@H](CCCNC(=N)N)C(=O)N[C@@H](CCCNC(=N)N)C(=O)N[C@@H](CCCNC(=N)N)C(=O)O)cc3C(=O)[O-])c3ccc(=[N+](C)C)cc-3oc2c1 | Unstable | – | – | – | – | – | – | – | – | – | – | – | – | – | – | – | – |
| CC[C@H](C)[C@@H]1NC(=O)[C@H](CCCNC(=N)N)NC(=O)[C@H](Cc2ccccc2)NC(=O)[C@H](CCCCN)NC(=O)[C@H](Cc2ccccc2)NC(=O)[C@H](CCCNC(=N)N)NC(=O)[C@@H](N)CSSC[C@@H](C(N)=O)NC(=O)[C@H]([C@@H](C)CC)NC(=O)[C@H](C(C)C)NC1=O (H-CRFKFRIVIC-NH2; disulfide 1-10) | – | 80 µM (≈ 103 µg/mL) | 100 µM (≈ 128 µg/mL) | 50 µM (≈ 64.1 µg/mL) | Non-Toxic | 4.49 | 3.34 | 5.07 | Active | Active | Active | Active | 4.5 µM | Active | Active | – | – |
| CC[C@H](C)[C@@H]1NC(=O)[C@H](CCCNC(=N)N)NC(=O)[C@H](Cc2ccccc2)NC(=O)[C@H](CCCCN)NC(=O)[C@H](Cc2ccccc2)NC(=O)[C@H](CCCNC(=N)N)NC(=O)[C@@H](N)CCC(=O)NCC[C@@H](C(N)=O)NC(=O)[C@H]([C@@H](C)CC)NC(=O)[C@H](C(C)C)NC1=O (H-ERFKFRIVI[Dab]-NH2; lactam 1-10) | – | 40 µM (≈ 51.5 µg/mL) | 60 µM (≈ 77.3 µg/mL) | 20 µM (≈ 25.8 µg/mL) | Non-Toxic | 5.07 | 4.82 | 5.46 | Active | Active | inactive | inactive | > 100 µM | Active | Active | 80 µM (≈ 103 µg/mL) | 4.95 |
| CC[C@H](C)[C@@H]1NC(=O)[C@H](CCCNC(=N)N)NC(=O)[C@H](Cc2ccccc2)NC(=O)[C@H](CCCCN)NC(=O)[C@H](Cc2ccccc2)NC(=O)[C@H](CCCNC(=N)N)NC(=O)[C@@H](N)CCC(=O)NC[C@@H](C(N)=O)NC(=O)[C@H]([C@@H](C)CC)NC(=O)[C@H](C(C)C)NC1=O (H-ERFKFRIVI[Dap]-NH2; lactam 1-10) | – | 80 µM (≈ 102 µg/mL) | 100 µM (≈ 127 µg/mL) | 40 µM (≈ 51 µg/mL) | Non-Toxic | 4.38 | 4.41 | 4.99 | Active | Active | Active | Active | 10.8 µM | Active | Active | – | – |
| CC[C@H](C)[C@@H]1NC(=O)[C@H](CCCNC(=N)N)NC(=O)[C@H](Cc2ccccc2)NC(=O)[C@H](CCCCN)NC(=O)[C@H](Cc2ccccc2)NC(=O)[C@H](CCCNC(=N)N)NC(=O)[C@@H](N)CCNC(=O)CC[C@@H](C(N)=O)NC(=O)[C@H]([C@@H](C)CC)NC(=O)[C@H](C(C)C)NC1=O (H-[Dab]RFKFRIVIE-NH2; lactam 1-10) | – | 40 µM (≈ 51.5 µg/mL) | 60 µM (≈ 77.3 µg/mL) | 20 µM (≈ 25.8 µg/mL) | Non-Toxic | 4.97 | 4.81 | 5.41 | Active | Active | inactive | inactive | > 100 µM | Active | Active | 80 µM (≈ 103 µg/mL) | 4.74 |
| CC[C@H](C)[C@@H]1NC(=O)[C@H](CCCNC(=N)N)NC(=O)[C@H](Cc2ccccc2)NC(=O)[C@H](CCCCN)NC(=O)[C@H](Cc2ccccc2)NC(=O)[C@H](CCCNC(=N)N)NC(=O)[C@@H](N)CNC(=O)CC[C@@H](C(N)=O)NC(=O)[C@H]([C@@H](C)CC)NC(=O)[C@H](C(C)C)NC1=O (H-[Dap]RFKFRIVIE-NH2; lactam 1-10) | – | 100 µM (≈ 127 µg/mL) | 100 µM (≈ 127 µg/mL) | 40 µM (≈ 51 µg/mL) | Non-Toxic | 4.44 | 4.44 | 5.14 | Active | Active | Active | Active | 2.3 µM | Active | Active | – | – |
| CC1(C)S[C@@H]2[C@H](NC(=O)[C@H](N)c3ccccc3)C(=O)N2[C@H]1C(=O)O [AMPICILLIN] | – | 12.5 µM (≈ 4.37 µg/mL) | 25 µM (≈ 8.74 µg/mL) | 50 µM (≈ 17.5 µg/mL) | – | 5.82 | 6.00 | 5.07 | – | – | – | – | – | – | – | 3.1 µM (≈ 1.08 µg/mL) | 5.96 |
